{
  "source": "patent US20130136809A1",
  "about": "“7-HYRDROXYFRULLANOLIDE ITS ANALOGS FOR PREVENTION CONTROL AND TREATMENT OF METABOLIC DISORDERS” (LAILA NUTRACEUTICALS, priority 2009, published 2013)",
  "key": {"[1]": {"test_system": "human endothelial cells", "assay": "Nitrite assay (Griess reagent), nitric oxide production", "type": "cell-based", "conditions": "0.1, 0.25, 0.50, 1.00 ng/ml; 24 h", "protocol": "Equal number (5000 cells) of human endothelial cells was plated in each well of a 96-well cell culture plate. The cells were treated with various concentrations (0.1, 0.25, 0.5 and 1.0 ng/ml) of 7-HF for 24 h. The control cultures received 0.01% (v/v) DMSO as the vehicle. After 24 h, the culture supernatants were collected and mixed with equal volume of Griess reagent [1:1 mixture of NED solution (0.1% N-1-napthylethulenediamine dihydrochloride in water) and Sulfanylamide solution (1% sulfanilamide in 5% phosphoric acid)]. The reaction was allowed for 10 min at room temperature. Finally, the color reaction was read at 550 nm in a micro-plate reader (BioRad, USA). Known concentrations of sodium nitrite were reacted to obtain a standard curve. Modulation of nitrite production in 7-HF treated cultures was quantitatively assessed by extrapolating the absorbance readings obtained from the test samples into the standard plot."}, "[2]": {"test_system": "3T3-L1 pre-adipocyte cells", "assay": "Inhibition of lipid accumulation in differentiated adipocytes (Oil Red O)", "type": "cell-based, mouse", "conditions": "Homo sapiens, 3T3-L1 adipocytes", "protocol": "One hundred thousand 3T3-L1 […] pre-adipocyte cells in Dulbecco's Modified Eagles Medium (DMEM) containing 10% Fetal Bovine Serum (FBS) were taken into each well of a 24-well plate and incubated for 48 h at 37° C. and 5% CO2. The differentiation of pre-adipocyte cells was initiated in a differentiation medium containing 10 μg/ml insulin, 1.0 μM dexamethasone, and 0.5 mM isobutylmethylxanthine (IBMX) for 48 h. After this the medium was replaced by DMEM containing 10 ug/ml insulin and incubated for 3 days. Then the differentiating cells were treated with […] of 7-hydroxyfrullanolide (1) or different natural analogs (structure numbers 3 to 11) or semi-synthetic analogs (structure numbers 12 to 25) of 7-HF. The cells were maintained in the medium for another 3-5 days. The cells incubated with 0.1% DMSO were considered as the vehicle control. After the incubation period, cells were washed with phosphate buffered saline (PBS) and fixed with 10% buffered formalin for 1 h at room temperature. One small aliquot of cell suspension was separated for cell counting in hemocytometer chamber. Fixed cells were stained with Oil Red O solution to measure the cellular neutral lipid accumulation. Briefly, cells were washed with PBS, fixed with 10% buffered formalin and stained with Oil Red O solution (0.5 g in 100 ml isopropanol) for […]. After removing the staining solution, the dye retained in the cells will be eluted into isopropanol and OD measured at 550 nm. The inhibition of fat accumulation in the treated cells was compared with the mock treated differentiated adipocytes. The treated and control cells were also analyzed and compared for inhibition of lipid accumulation visually under microscope and recorded digitally in suitable image capture system. The anti-adipogenic activity by 7-HF is depicted in Figure I and the percentage inhibition of lipid accumulation shown by 7-HF and its natural and semi-synthetic analogs is summarized in Table-1."}, "[3]": {"test_system": "CD36", "assay": "Immunoblot of CD36 expression in high glucose induced J774 macrophage cells", "type": "cell-based, mouse", "conditions": "1 μg/ml; 600 mg/dL glucose, 5 days", "protocol": "Experimental protocol: This was evaluated in glucose induced J774, mouse macrophage cells. Briefly, the cells were cultured in DMEM with 2 mM Glutamine, 100 U/mL penicillin, […] streptomycin and 10% fetal bovine serum (Hyclone, Logan, Utah). Equal number of cells was seeded into 35 mm petri dishes (Corning, USA) one day before the experiment. The culture media was replaced with fresh, glucose free DMEM supplemented with 10% fetal bovine serum. 7-HF was diluted at […] and all cultures were pre-incubated for 2 hours at 5% CO2 at 37° C., and then incubated with 600 mg/dL of glucose for 5 days. Representative photomicrographs showing inhibition of lipid accumulation by 7-HF in high glucose induced macrophage cells of an in vitro model of atherosclerosis are shown in Figure IV. The control culture was supplemented with 100 mg/dL glucose. […] Protein concentration was measured by Bradford method.\nInhibition of CD36 protein expression in high glucose induced J774 macrophage cells in presence or absence of 7-HF was evaluated in immunoblot assay. […] Finally, the specific immuno-reactive bands were developed with West-pico chemiluminescent substrate (Pierce Biotechnology, IL, USA), and the immunoblot images were recorded in a Kodak Image Station (Kodak, USA). Band intensities were calculated densitometrically and normalized with expression of actin in respective samples."}, "[4]": {"test_system": "PPARγ", "assay": "Immunoblot of PPARγ expression in 3T3-L1 adipocytes", "type": "cell-based, mouse", "conditions": "1 ug/ml; normalized with actin", "protocol": "(§1) Experimental protocol: Mouse pre-adipocyte 3T3-L1 cells are maintained in Dulbecco's Modified Eagles Medium (DMEM) supplemented with 2 mM glutamine, 4.5 g/L glucose and 10% fetal bovine serum. Equal number of cells was plated in each well of 24-well culture plates. Cells were pre-treated separately with 1 μg/mL 7-hydroxyfrullanolide for 2 h and followed by addition of differentiation medium containing 500 nM insulin, 1.0 μM dexamethasone, and 0.5 mM isobutylmethylxanthine (IBMX) for 48 h. Thereafter, cells were further incubated with post differentiation medium (DMEM containing 100 nM insulin) in presence or absence of 7-HF. […] Protein content was measured in Bradford method by using Coomassie blue dye and cell lysates were stored in aliquots at −80° C. until further use. The modulation of adipocyte differentiation markers such as Peroxisome proliferator-activated receptor gamma (PPARγ), CD36, adipocyte fatty acid binding protein (aP2); and intracellular lipid droplet surface associated protein, perilipin expression were evaluated by immunoblot assay.\n(§2) Inhibition of protein expression of biomarker molecules adipocytes in presence or absence of 7-hydroxyfrullanolide (7-HF) was evaluated in immunoblot assay. […] Band intensities were calculated densitometrically and normalized with expression of actin in respective samples."}, "[5]": {"test_system": "ADRP", "assay": "Immunoblot of ADRP expression in 3T3-L1 adipocytes", "type": "cell-based, mouse", "conditions": "1 ug/ml; normalized with actin", "protocol": "as §1, §2"}, "[6]": {"test_system": "adiponectin", "assay": "Western immunoblot of adiponectin in 3T3-L1 adipocytes", "type": "cell-based, mouse", "conditions": "1 μg/ml; 3T3-L1 mature adipocytes", "protocol": "as §1\nInhibition of protein expression of biomarker molecules adipocytes in presence or absence of 7-hydroxyfrullanolide (7-HF) was evaluated in immunoblot assay. […] Band intensities were calculated densitometrically and normalized with expression of actin in respective samples. […]"}},
  "data": [
    {"smiles": "C=C1C(=O)O[C@H]2C3=C(C)CCC[C@]3(C)CC[C@@]12O", "note": "[7-HF (1), 7-hydroxyfrullanolide]", "values": [
      {"measurement": "NO concentration (nitrite) in cell culture supernatant", "setting": "[1]", "value": "significant and dose dependent increase"},
      {"measurement": "inhibition at 1 µg/mL", "setting": "[2]; 1.0 μg/mL", "value": 52.5, "unit": "%"},
      {"measurement": "inhibition at 2.5 µg/mL", "setting": "[2]; 2.5 μg/mL", "value": 63.5, "unit": "%"},
      {"measurement": "CD36 levels in high glucose induced macrophage cells", "setting": "[3]", "value": "reduced back towards their base values"},
      {"measurement": "PPARγ protein expression", "setting": "[4]", "value": "down-regulation"},
      {"measurement": "ADRP protein expression", "setting": "[5]", "value": "down-regulation"},
      {"measurement": "adiponectin protein expression", "setting": "[6]", "value": "potent upregulation"}
    ]}
  ]
}
